Measurements reported in PubChem BioAssay (NCI).
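Five concentrations, 48 hours, 96-well plates. The concentration for 50% growth inhibition is given as GI50. TGI is the concentration that stops growth completely.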

Experiments:
Assay in all cases: growth of human tumour cells (NCI), 48 h
SW-620 colon = system: SW-620 colon
SK-MEL-2 melanoma = system: SK-MEL-2 melanoma
PC-3 prostate = system: PC-3 prostate
HL-60(TB) leukemia = system: HL-60(TB) leukemia
HCT-116 colon = system: HCT-116 colon
SK-MEL-5 melanoma = system: SK-MEL-5 melanoma
SF-539 CNS = system: SF-539 CNS
RXF 393 renal = system: RXF 393 renal
SN12C renal = system: SN12C renal
BT-549 breast = system: BT-549 breast
786-0 renal = system: 786-0 renal
HCT-15 colon = system: HCT-15 colon
SR leukemia = system: SR leukemia
ACHN renal = system: ACHN renal
SK-MEL-28 melanoma = system: SK-MEL-28 melanoma
K-562 leukemia = system: K-562 leukemia
SNB-75 CNS = system: SNB-75 CNS
NCI-H23 lung = system: NCI-H23 lung
A549 NSCLC = system: A549 NSCLC
SF-295 CNS = system: SF-295 CNS
HT29 colon = system: HT29 colon
U251 CNS = system: U251 CNS
SF-268 CNS = system: SF-268 CNS
SNB-19 CNS = system: SNB-19 CNS
T-47D breast = system: T-47D breast
MALME-3M melanoma = system: MALME-3M melanoma
DU-145 prostate = system: DU-145 prostate
UO-31 renal = system: UO-31 renal

With COC1/C=C/OC2(C)Oc3c(C)c(O)c4c(O)c(c(/C=N/N(c5ccccc5)c5ccccc5)c(O)c4c3C2=O)NC(=O)C(C)=C/C=C/C(C)C(O)C(C)C(O)C(C)C(OC(C)=O)C1C (stereo unspecified) the GI50 (SW-620 colon) was 1050 nM, the TGI (SW-620 colon) was 2600 nM and the GI50 (SK-MEL-2 melanoma) was 1840 nM. The TGI (SK-MEL-2 melanoma) was 7140 nM, the GI50 (PC-3 prostate) was 1270 nM and the TGI (PC-3 prostate) was 4950 nM. The GI50 (HL-60(TB) leukemia) was 1600 nM, the TGI (HL-60(TB) leukemia) was 3580 nM and the GI50 (HCT-116 colon) was 858 nM. For the same compound, the TGI (HCT-116 colon) was 1760 nM, the GI50 (SK-MEL-5 melanoma) was 1760 nM and the TGI (SK-MEL-5 melanoma) was 6750 nM. The GI50 (SF-539 CNS) was 1440 nM, the TGI (SF-539 CNS) was 4700 nM and the GI50 (RXF 393 renal) was 963 nM. For the same compound, the TGI (RXF 393 renal) was 1930 nM, the GI50 (SN12C renal) was 1810 nM and the TGI (SN12C renal) was 7460 nM. For the same compound, the GI50 (BT-549 breast) was 2500 nM, the TGI (BT-549 breast) was 8830 nM and the GI50 (786-0 renal) was 1630 nM. It also gave a TGI (786-0 renal) of 5960 nM, a GI50 (HCT-15 colon) of 1480 nM and a TGI (HCT-15 colon) of 5450 nM. It also gave a GI50 (SR leukemia) of 1400 nM, a TGI (SR leukemia) of 3390 nM and a GI50 (ACHN renal) of 1750 nM. For the same compound, the TGI (ACHN renal) was 7130 nM, the GI50 (SK-MEL-28 melanoma) was 1070 nM and the TGI (SK-MEL-28 melanoma) was 2430 nM. It also gave a GI50 (K-562 leukemia) of 1590 nM, a TGI (K-562 leukemia) of 5690 nM and a GI50 (SNB-75 CNS) of 1660 nM. The TGI (SNB-75 CNS) was 7180 nM, the GI50 (NCI-H23 lung) was 1960 nM and the TGI (NCI-H23 lung) was 8980 nM. It also gave a GI50 (A549 NSCLC) of 2110 nM, a TGI (A549 NSCLC) of 7800 nM and a GI50 (SF-295 CNS) of 2180 nM. It also gave a TGI (SF-295 CNS) of 8820 nM, a GI50 (HT29 colon) of 1100 nM and a TGI (HT29 colon) of 2630 nM. For the same compound, the GI50 (U251 CNS) was 1200 nM, the TGI (U251 CNS) was 3000 nM and the GI50 (SF-268 CNS) was 1930 nM. It also gave a TGI (SF-268 CNS) of 8510 nM, a GI50 (SNB-19 CNS) of 2640 nM and a TGI (SNB-19 CNS) of 12100 nM. For the same compound, the GI50 (T-47D breast) was 1820 nM, the TGI (T-47D breast) was 7870 nM and the GI50 (MALME-3M melanoma) was 1830 nM. For the same compound, the TGI (MALME-3M melanoma) was 9360 nM, the GI50 (DU-145 prostate) was 2370 nM and the TGI (DU-145 prostate) was 7960 nM. The GI50 (UO-31 renal) was 3020 nM and the TGI (UO-31 renal) was 12000 nM.
